Laboratory results as given in PMC11505029, “Isatin Bis-Imidathiazole Hybrids Identified as FtsZ Inhibitors with On-Target Activity Against Staphylococcus aureus” (Antibiotics, 2024).

Key:
Format in all cases: cell-based
[1] = cell viability and proliferation assay (WST8/CCK-8); settings: African green monkey, Vero cells (ATCC CCL-81); Vero cells; mean [95% confidence interval]
Method: (§1) Vero cell line (ATCC CCL-81) was selected as the model system to assess the effect of the isatin hybrids on normal epithelial cells, and a previously established protocol was used with minor modifications. Briefly, cells were cultured in RPMI-1640 medium supplemented with 10% fetal bovine serum (FBS) (Carlo Erba Reagents, Milan, Italy), 100 U/mL penicillin, and 100 µg/mL streptomycin at 37 °C with 5% CO2. For experiments, cells were seeded into 96-well plates at 10^4 cells/well, and incubated at 37 °C for 24 h. Following washes with PBS, the cell monolayer was incubated with 100 µL of medium containing the 2-fold serial dilutions of the compounds. Both untreated cells and cells incubated with medium containing solvent dilutions were included in each experiment as controls. The cell viability was assessed by a WST8-based assay according to the manufacturer’s instructions (CCK-8, Cell Counting Kit-8, Dojindo Molecular Technologies, Rockville, MD, USA). After 48 h of incubation, culture medium was removed from each well, the monolayer was washed with PBS, and 100 µL of fresh medium containing 10 µL of CCK-8 solution were added. After 2 h at 37 °C, the OD450nm was read, and data were expressed as the percentage of the cell viability relative to the untreated controls. The CC50 was obtained from the corresponding dose–response curves generated, as previously reported for IC50 values.

[2] = tested on: Vero cell line (ATCC CCL-81); experiment: as above; settings: 100 μM, viability relative to untreated controls, mean ± SD
Method: as §1

S. aureus MRSA 3 = experiment: dose-response against clinical isolate MRSA 3; settings: Staphylococcus aureus, mean [95% confidence interval]
Method: (§2) The antimicrobial activity of the compounds was assessed by a well-established broth microdilution procedure in microtiter plates and in compliance with the Clinical and laboratory Standard Institute (CLSI) guidelines (Clinical and Laboratory Standards Institute, Wayne, PA, USA). In short, microbial inocula were prepared at 0.5 McFarland in PBS and, subsequently, bacterial suspensions were diluted 1:200 in Mueller–Hinton broth (Sigma-Aldrich, St. Louis, MO, USA), while fungal inoculum was diluted 1:20 in RPMI-1640 medium (Gibco®, ThermoFisher Scientific Inc., Waltham, MA, USA), containing 2% glucose and 0.3% levo-glutamine buffered to pH 7.0 with 0.165 M 3-(N-morpholino)propanesulfonic acid (MOPS). A total of 100 µL of these microbial suspensions were introduced in a 96-well microplate and incubated with 100 µL of the compounds, two-fold serially diluted in the range of 100–0.19 µM. Positive controls (microbial suspensions in regular media), negative controls (only compounds), and solvent controls (microbial suspensions incubated with DMSO dilutions) were included in the tests. The plate was incubated at 37 °C for 24 h, and subsequently, the optical density at 630 nm (OD630nm) was spectrophotometrically measured. Each experiment was carried out with three technical replicates (i.e., three wells per sample) and repeated at least two times for statistical power. […]

S. aureus MRSA 5 = experiment: dose-response against clinical isolate MRSA 5; settings: Staphylococcus aureus, mean [95% confidence interval]
Method: as §2

## O=C1Nc2cc(OC(F)(F)F)ccc2C1(c1c(Cl)nc2sccn12)c1c(Cl)nc2sccn12 [Compound 11, 3,3-bis(6-Chloroimidazo[2,1-b]thiazol-5-yl)-6-(trifluoromethoxy)indolin-2-one]
[1]
  CC50 at 48 h: 63.3 µM
[2]
  Cell proliferation, Vero: most toxic
[2]; Chlorocebus sabaeus, Vero, 48 h, read-out: Cell proliferation, Vero
  viability at 100 µM: 21.1 ± 3.3%
S. aureus MRSA 3
  IC50: 8.7 µM
S. aureus MRSA 5
  IC50: 21.2 µM
